Experimental data reported in patent US20160102067A1, “OXIRAN AMINES” (V-BIOTEK HOLDING APS, priority 2012, published 2016).
Converted amounts (≈) assume the structure as drawn.

Experiments:
P. falciparum = assay: [3H]-hypoxanthine incorporation, growth rate of P. falciparum (Example 7); type: cell-based, Plasmodium falciparum; details: [3H]-hypoxanthine incorporation after 48 hrs, 3 fold dilution series, FIG. 15
Description: 15.3 mg 2-Methyl-3-nonyloxiran-2-amine obtained in example 6 was mixed with 100 μl DMSO (Dimethyl sulfoxid) to obtain a stock solution. A first solution was prepared by mixing 100 uL of the stock solution with 400 uL of parasite media. Subsequently this solution was diluted in 15 dilution series, each dilution serie being diluted 3 fold. The same protecol as used in example 6 was applied for this experiment.
Specifically, the incorporation of [3H]-hypoxanthine was used as a measure for the life conditions of P. falciparum. Parasites were syncronised to ring stages by […] treatment and then incubated at 0.3% parasitemia at 5% haematocrit in 100 uL of growth medium containing [3H]-hypoxanthine over one cycle of replication, i.e. 48 hrs. Each experiment was performed in triplets.

[1] = system: MRSA (meticillin-resistant staphylococcus aureusis); assay: MIC determination for MRSA; type: cell-based; details: Staphylococcus aureus, dilution series, read-out: MIC (Minimum Inhibitory Concentration)
Description: (§1) 15.3 mg 2-Methyl-3-nonyloxiran-2-amine obtained in example 6 was mixed with 100 μl DMSO (Dimethyl sulfoxid) to obtain a stock solution. The stock solution was used for determining the MIC (Minimum Inhibitory Concentration) for MRSA (meticillin-resistant staphylococcus aureusis) and MSSA (meticillin-sensitive staphylococcus aureusis).

[2] = system: MSSA (meticillin-sensitive staphylococcus aureusis); assay: MIC determination for MSSA; type: cell-based; details: Staphylococcus aureus, dilution series, read-out: MIC (Minimum Inhibitory Concentration)
Description: as §1

[3] = system: erythrocytic stages of P. falciparum; assay: [3H]-hypoxanthine incorporation assay with extract, P. falciparum strain K1; type: cell-based, Plasmodium falciparum; details: extract at a dilution of 160 times
Description: In vitro activity of extract dilutions were tested against erythrocytic stages of P. falciparum by a modified [3H]-hypoxanthine incorporation assay (Scala, F., Fattorusso, E., Menna, M., Taglialatela-Scafati, O., Tiemey, M., Kaiser, M., Tasdemir, D., 2010. Bromopyrrole alkaloids as lead compounds against protozoan parasites. Marine Drugs 8, 2162-2174.) using the […] strain K1. The standard drug used as a positive control was amodiaquine.
Briefly, parasite cultures incubated in RPMI 1640 medium with 5% Albumax (without hypoxanthine) were exposed to serial extract dilutions in microtiter plates. After 48 h of incubation at 37 ° C. in a reduced oxygen atmosphere, 0.5 μCi 3H-hypoxanthine was added to each well. Cultures were incubated for a further 24 h before they were harvested onto glass-fiber filters and washed with distilled water. The radioactivity was counted using a Betaplate™ liquid scintillation counter (Wallac, Zurich, Switzerland). The results were recorded as counts per minute (CPM) per well at each drug concentration and expressed as percentage of the untreated controls. IC50 values were calculated from graphically plotted dose-response curves. Each IC50 value obtained is the mean of at least two separate experiments performed in duplicate (the variation is maximum 20%).

Row | MIC [1] [mg/mL] | MIC [2] [mg/mL] | Structure (SMILES) | growth rate of P. Falciparum (P. falciparum) | [3H]-hypoxanthine incorporation value [3] [CPM]
1 | 38.3 (≈ 192 mM) | 9.6 (≈ 48.2 mM) | CCCCCCCCCC1OC1(C)N (stereo not shown) [2-Methyl-3-nonyloxiran-2-amine] | concentration dependent inhibition | 
2 |  |  | CCN(CC)Cc1cc(Nc2ccnc3cc(Cl)ccc23)ccc1O [amodiaquine] |  | 47.5
